Data reported in US11214803B2, “Modulators of YAP1 expression” (Ionis Pharmaceuticals, Inc., priority 2019, dated 2022).
Strand notation (5' to 3'): a small letter for the sugar, then the base; units joined by * are phosphorothioate-linked, units joined directly phosphodiester-linked; [ ] holds rarer units or linkages, { } end groups; capitals alone tell only the bases. k = constrained ethyl (cEt); [5mC] = 5-methylcytosine; d = 2'-deoxy (DNA)

What follows are substances tested on Yap1 mRNA (assay: Antisense inhibition of human Yap1 in A-431 cells by cEt gapmers, single dose (Example 4, RTS4814)). Conditions: Table 14; A-431 cells, 5,000 cells per well, free uptake, 2,000 nM, approximately 48 hours; RTS4814; normalized to RIBOGREEN; Yap1 mRNA relative to untreated control; * = targets amplicon region of primer probe set.
Assay type: cell-based
Method: Modified oligonucleotides were designed to target a Yap1 nucleic acid and were tested for their effect on Yap1 mRNA level in vitro. The modified oligonucleotides were tested in a series of experiments that had similar culture conditions. Cultured A-431 cells at a density of 5,000 cells per well were treated using free uptake with 2,000 nM of modified oligonucleotide. After a treatment period of approximately 48 hours, RNA was isolated from the cells and Yap1 mRNA levels were measured by quantitative real-time RTPCR. Human primer probe set RTS4814 was used to measure mRNA levels. Yap1 mRNA levels were normalized to total RNA content, as measured by RIBOGREEN®. Results are presented in the tables below as percent control of the amount of Yap1 mRNA relative to untreated control cells (% UTC). The modified oligonucleotides with percent control values marked with an asterisk (*) target the amplicon region of the primer probe set. Additional assays may be used to measure the potency and efficacy of the modified oligonucleotides targeting the amplicon region.
The newly designed modified oligonucleotides in the Tables below were designed as 3-10-3 cEt gapmers. The gapmers are 16 nucleosides in length, wherein the central gap segment comprises of ten 2′-deoxynucleosides and is flanked by wing segments on the 5′ direction and the 3′ direction comprising three nucleosides each. Each nucleoside in the 5′ wing segment and each nucleoside in the 3′ wing segment has a cEt sugar modification. The internucleoside linkages throughout each gapmer are phosphorothioate (P═S) linkages. All cytosine residues throughout each gapmer are 5-methylcytosines.
“Start site” indicates the 5′-most nucleoside to which the gapmer is targeted in the human gene sequence. “Stop site” indicates the 3′-most nucleoside to which the gapmer is targeted human gene sequence. […] Activity of the modified oligonucleotide may be defined in a different experiment.

In order of rising “YAP1 (% UTC)” value:
1. 1075808 (kG*k[5mC]*kA*dA*dT*dA*dG*dA*dG*dT*dA*dA*d[5mC]*k[5mC]*kA*kG; antisense) [Compound 1075808]  3 % UTC
2. 1076064 (kT*kA*kT*dG*dA*dA*d[5mC]*dA*dA*dT*dG*dT*dA*k[5mC]*kT*k[5mC]; antisense) [Compound 1076064]  5 % UTC
3. 1075328 (k[5mC]*kT*k[5mC]*dG*d[5mC]*dA*dA*dA*dG*d[5mC]*d[5mC]*dT*d[5mC]*kT*kT*k[5mC]; antisense) [Compound 1075328]  21 % UTC
4. 1076512 (antisense k[5mC]*kA*kT*dA*dA*dA*d[5mC]*d[5mC]*dA*dT*dT*dA*dA*kG*kT*kG) [Compound 1076512]  65 % UTC
5. 1075104 (antisense kA*kT*kT*dA*dT*dA*dA*dG*dG*dT*d[5mC]*d[5mC]*dT*kA*k[5mC]*kA) [Compound 1075104]  67 % UTC
6. 1074912 (antisense kA*kT*k[5mC]*d[5mC]*d[5mC]*dG*dA*dG*dT*dG*dG*dG*d[5mC]*kT*kA*kA) [Compound 1074912]  85 % UTC
7. 1075392 (kG*kA*k[5mC]*dG*dG*dG*dT*dG*dA*dA*d[5mC]*d[5mC]*dT*kG*kT*kT; antisense) [Compound 1075392]  95 % UTC
8. 1076128 (kT*k[5mC]*kT*dA*dA*dA*d[5mC]*d[5mC]*dT*dA*dA*dA*dG*kA*k[5mC]*kT; antisense) [Compound 1076128]  118 % UTC

Same assay, conditions: Table 15; A-431 cells, 5,000 cells per well, free uptake, 2,000 nM, approximately 48 hours; RTS4814; normalized to RIBOGREEN; Yap1 mRNA relative to untreated control; * = targets amplicon region of primer probe set

In order of falling “YAP1 (% UTC)” value:
1. 1075361 (kT*k[5mC]*kT*dT*dA*dA*dG*dG*dG*dA*dA*dT*dG*kT*kA*kT; antisense) [Compound 1075361]  69 % UTC
2. 1075521 (kA*kA*kA*dT*d[5mC]*dG*dA*dG*dG*d[5mC]*dG*dA*dA*kT*k[5mC]*kT; antisense) [Compound 1075521]  65 % UTC
3. 1075713 (kA*kA*kT*d[5mC]*dA*dA*d[5mC]*d[5mC]*dT*dT*dG*dT*dT*kA*kG*kA; antisense) [Compound 1075713]  58 % UTC
4. 1075009 (antisense kA*kT*kA*dA*dT*d[5mC]*dG*dA*dA*d[5mC]*dA*dT*dT*kG*kT*kG) [Compound 1075009]  43 % UTC
5. 1074849 (kT*kG*kT*dT*dA*dT*dG*dA*dT*dA*dG*dG*d[5mC]*kA*k[5mC]*kA; antisense) [Compound 1074849]  18 % UTC

Same assay, conditions: Table 16; A-431 cells, 5,000 cells per well, free uptake, 2,000 nM, approximately 48 hours; RTS4814; normalized to RIBOGREEN; Yap1 mRNA relative to untreated control cells

In order of falling “YAP1 (% UTC)” value:
1. 1075298 (kA*kT*k[5mC]*dT*d[5mC]*dG*dG*dA*dA*dA*dT*dT*dT*kA*kA*kA; antisense) [Compound 1075298]  128 % UTC
2. 1074914 (antisense kT*kT*kA*d[5mC]*dA*dT*d[5mC]*d[5mC]*d[5mC]*dG*dA*dG*dT*kG*kG*kG) [Compound 1074914]  97 % UTC
3. 1076418 (kT*kA*kT*dA*dA*dT*dA*dA*d[5mC]*d[5mC]*d[5mC]*dA*dT*kT*kG*kT; antisense) [Compound 1076418]  63 % UTC
4. 1075266 (antisense kT*kA*kT*dT*dA*dG*dG*dA*d[5mC]*dA*dA*dA*dG*kT*kA*k[5mC]) [Compound 1075266]  57 % UTC
5. 1075554 (kT*kT*kG*d[5mC]*dA*dA*dT*dA*dG*dT*d[5mC]*dA*d[5mC]*k[5mC]*k[5mC]*kA; antisense) [Compound 1075554]  56 % UTC
6. 1075394 (kT*k[5mC]*kT*dT*dA*dA*d[5mC]*d[5mC]*dT*dA*dT*dG*d[5mC]*k[5mC]*kA*kA; antisense) [Compound 1075394]  27 % UTC
7. 1075490 (antisense k[5mC]*kA*kT*dA*dT*dA*d[5mC]*dG*d[5mC]*dA*dA*dT*dT*kA*kG*kT) [Compound 1075490]  27 % UTC
8. 1075810 (kG*kT*kA*dG*d[5mC]*dA*dA*dT*dA*dG*dA*dG*dT*kA*kA*k[5mC]; antisense) [Compound 1075810]  7 % UTC
9. 1075458 (antisense k[5mC]*k[5mC]*kA*d[5mC]*dA*dA*dT*dA*dT*dA*d[5mC]*dT*d[5mC]*k[5mC]*kA*kA) [Compound 1075458]  7 % UTC
10. 1075138 (antisense kA*kA*kT*dA*dA*dT*dA*dG*dA*dT*dA*d[5mC]*dT*kG*k[5mC]*k[5mC]) [Compound 1075138]  4 % UTC

Same assay, conditions: Table 17; A-431 cells, 5,000 cells per well, free uptake, 2,000 nM, approximately 48 hours; RTS4814; normalized to RIBOGREEN; Yap1 mRNA relative to untreated control cells

In order of rising “YAP1 (% UTC)” value:
1. 1076067 (kG*k[5mC]*kA*dT*dA*dT*dA*dA*dG*dA*dT*dG*dT*kT*kT*kG; antisense) [Compound 1076067]  4 % UTC
2. 1074723 (antisense kG*kG*kT*dA*dA*dA*dG*dG*dA*dA*dG*dA*dT*k[5mC]*kT*k[5mC]) [Compound 1074723]  6 % UTC
3. 1076003 (kA*kA*kT*dT*dT*dA*dA*dT*dG*dG*d[5mC]*dT*dT*kG*k[5mC]*kA; antisense) [Compound 1076003]  8 % UTC
4. 1074659 (antisense k[5mC]*kT*kA*dA*dA*dA*d[5mC]*dT*d[5mC]*d[5mC]*dA*dT*d[5mC]*kT*kG*k[5mC]) [Compound 1074659]  12 % UTC
5. 1075299 (kG*kA*kT*dA*dA*d[5mC]*d[5mC]*dA*dA*dT*dG*d[5mC]*dA*k[5mC]*k[5mC]*kA; antisense) [Compound 1075299]  21 % UTC
6. 1075747 (kA*kT*kT*dT*dA*dG*d[5mC]*dA*dT*dG*dA*dT*dT*kA*kA*k[5mC]; antisense) [Compound 1075747]  43 % UTC
7. 1075139 (antisense k[5mC]*k[5mC]*k[5mC]*dA*dA*dA*dT*dA*dA*dT*dA*dG*dA*kT*kA*k[5mC]) [Compound 1075139]  65 % UTC
8. 1074915 (antisense kA*kG*kT*dT*dA*d[5mC]*dA*dT*d[5mC]*d[5mC]*d[5mC]*dG*dA*kG*kT*kG) [Compound 1074915]  65 % UTC
9. 1074211 (antisense k[5mC]*kT*kT*d[5mC]*d[5mC]*dG*dG*dA*dG*d[5mC]*d[5mC]*dT*d[5mC]*kA*kT*kG) [Compound 1074211]  67 % UTC
10. 1074947 (antisense kT*k[5mC]*k[5mC]*dA*dA*dA*dA*d[5mC]*d[5mC]*d[5mC]*dT*dT*dT*kG*kG*kT) [Compound 1074947]  99 % UTC

Same assay, conditions: Yap1 mRNA remaining as percent of untreated control; 3-10-3 cEt gapmers; A-431 cells; Table 36

In order of rising “YAP1 (% UTC)” value:
1. 1074774 (k[5mC]*kA*kA*dG*dA*dA*dT*dA*d[5mC]*d[5mC]*d[5mC]*dA*dG*kT*kT*kA; antisense) [compound 1074774]  16 % UTC
2. 1076342 (antisense k[5mC]*kA*kT*dT*dA*dA*d[5mC]*dT*dA*d[5mC]*dA*dA*d[5mC]*kT*kG*kT) [compound 1076342]  33 % UTC
3. 1074390 (k[5mC]*kT*kG*d[5mC]*dA*dG*dA*d[5mC]*dT*dT*dG*dG*d[5mC]*kA*kT*k[5mC]; antisense) [compound 1074390]  64 % UTC
4. 1075318 (antisense kA*kT*k[5mC]*d[5mC]*dT*dA*dA*dA*dG*d[5mC]*d[5mC]*dA*d[5mC]*kT*kG*k[5mC]) [compound 1075318]  72 % UTC
5. 1074934 (antisense k[5mC]*kA*kG*dG*dA*dG*dA*d[5mC]*dT*dA*dT*dA*d[5mC]*kA*kA*k[5mC]) [compound 1074934]  74 % UTC

Same assay, conditions: Yap1 mRNA remaining as percent of untreated control; 3-10-3 cEt gapmers; A-431 cells; Table 37

In order of rising “YAP1 (% UTC)” value:
1. 1074391 (kG*kT*k[5mC]*dA*dG*dA*dA*d[5mC]*dT*d[5mC]*dA*dA*dA*kG*k[5mC]*kT; antisense) [compound 1074391]  14 % UTC
2. 1075671 (kG*kA*kT*dA*dT*dA*dT*dA*dT*dG*dA*dT*dG*kG*kA*k[5mC]; antisense) [compound 1075671]  37 % UTC
3. 1076311 (kT*kA*kT*dA*dA*d[5mC]*d[5mC]*d[5mC]*dT*dA*dT*dA*d[5mC]*kT*kT*kG; antisense) [compound 1076311]  56 % UTC
4. 1074935 (antisense kA*k[5mC]*kA*dG*dG*dA*dG*dA*d[5mC]*dT*dA*dT*dA*k[5mC]*kA*kA) [compound 1074935]  80 % UTC

Same assay, conditions: table after Table 37, headed TABLE 32 (gapmers targeting SEQ ID NO.: 3); A-431 cells, free uptake, 2,000 nM, approximately 48 hours, RTS4814

In order of rising “YAP1 (% UTC)” value:
1. 1074880 (k[5mC]*kT*k[5mC]*d[5mC]*dT*dG*d[5mC]*d[5mC]*dG*dA*dA*dG*d[5mC]*kA*kG*kT; antisense) [compound 1074880]  101 % UTC
2. 1074883 (kG*kG*k[5mC]*dT*dA*dA*d[5mC]*dT*d[5mC]*d[5mC]*dT*dG*d[5mC]*k[5mC]*kG*kA; antisense) [compound 1074883]  107 % UTC
